# Data reported in patent US11974973B2, “Ketone supplements-evoked effect on absence epilepsy by co-administration of uridine” (UNIVERSITY OF SOUTH FLORIDA, priority 2022, dated 2024).
# “Also recorded” adds a separate entry of the source.
# What was measured:
# WAG/Rij rats [1] = settings: effective doses; previous studies [7,8,25,41,45]; cited from earlier work
# WAG/Rij rats [2] = test: EEG recording of spike-wave discharges (SWD number, averaged and total SWD time) in WAG/Rij rat model of human absence epilepsy; assay type: in vivo
# Source text: Free access to water and food (Table 1), as well as standard laboratory conditions were provided.
# Rats were implanted with stainless steel screw electrodes for EEG recording under isoflurane-air mixture (2.0-2.5%) anesthesia. The screw electrodes were placed epidurally over the cortex of the frontal (AP: 2.0 mm; L: 2.1 mm) and parietal (AP: −6.5 mm; L: 2.1 mm) areas. Reference electrodes and ground electrodes were also stainless-steel screw electrodes (implanted above the cerebellar cortex). All electrodes were soldered to a 10-pin socket and permanently attached to the skull with dentacrylate cement (Ivoclar Vivadent AG, Schaan, Liechtenstein). Lidocaine ointment (5%; EGIS, Budapest, Hungary) was used as post-operative pain relief.
# The EEG was recorded in a Faraday cage. […] The sampling rate was 500 Hz whereas the bandwidth of the EEG recording was 0.3 Hz to 150 Hz. Both the treatments and handling may induce stress and behavioral changes, which may modify the SWD number. […] For this reason, data of the first 30 min after the treatments was excluded from the analysis. Thus, the number and time of SWDs were considered between 30 and 270 min of post-treatment time (from 1.00 PM to 5.00 PM). SWDs (a train of asymmetric 7-11 Hz sharp spikes and slow waves) were cut off from the raw data files and were analyzed by FFT analysis. The recording periods were split into 60 min sections and evaluated separately. […]
# Animals were assigned into eight groups (FIG. 1). To help the rats to adapt to the experimental procedures (e.g., EEG recording), after the two-week recovery period animals were handled daily and were connected to the EEG/CED system for 4 days (once a day, for 4.5 h) (group 1-8). Moreover, on same days, rats of group 7 and group 8 were also gavaged by water (2.5 g/kg/day) for the adaptation of rats to gavage method. To establish averaged control SWD numbers (group 1-8) and control average time and total time of SWDs (group 5, group 6, and group 8), all rats received 1 mL saline i.p. on 3 consecutive days (three control days, first treatment). Thirty min later, animals were injected again with 1 mL saline i.p. (second treatment, group 1-6) or gavaged by 2.5 g/kg water (second treatment, group 7 and 8). […] On the fourth day of experiments, the rats in group 1 and group 2 were i.p. injected with 1 mL 10% DMSO solution (first treatment) and, 30 min later, with 250 mg/kg, and 1000 mg/kg uridine in 1 mL saline (second treatment), respectively. On the fourth day, animals in group 3 first received 0.2 mg/kg DPCPX alone in 1 mL 10% DMSO solution (first treatment) followed by i.p. 1 mL saline (30 min later; second treatment) (FIG. 1). […] On that day, the animals in group 5 were injected with combined i.p. injection of DPCPX and uridine: 0.2 mg/kg DPCPX in 1 mL 10% DMSO solution (first treatment) and, 30 min later, 1000 mg/kg uridine in 1 mL saline (second treatment) were administered. […] Animals of group 7 received i.p. 1 mL saline (first treatment), and 30 min later, gavage of 2.5 g/kg KSMCT was carried out (second treatment) on the fourth day. […] On the fifth (PTC) day, i.p. administration of 1 mL saline (first treatment) was followed by gavage of 2.5 g/kg water (30 min later; second treatment; group 7 and 8) (FIG. 1).
# Data were presented as means±standard error of the mean (S.E.M.). The pretreatment control values of SWD numbers (group 1-8) and SWD time (group 5, group 6, and group 8) were the grand average of SWD numbers and time recorded on the three control days.
# [3] = DPCPX i.p. 0.2 mg/kg or SCH 58261 i.p. 0.5 mg/kg alone, PTC day (groups 3 and 4, FIG. 2C,D)
SMILES,sleep-waking ratios and averaged time of SWDs (WAG/Rij rats [1]),"SWD number compared to control (WAG/Rij rats [2]; DPCPX i.p. 0.2 mg/kg alone, treatment day, 30-270 min (group 3, FIG. 2C), 0.2 mg/kg)",SWD number compared to control (WAG/Rij rats [2]; [3]),"SWD number compared to control (WAG/Rij rats [2]; SCH 58261 i.p. 0.5 mg/kg alone, treatment day, four hours recording (group 4, FIG. 2D))","SWD number compared to control (WAG/Rij rats [2]; uridine i.p. 250 mg/kg alone, post-treatment control (PTC) day (group 1, FIG. 2A))","SWD number compared to control (WAG/Rij rats [2]; uridine i.p. 250 mg/kg alone, treatment day, second to fourth hours of recording (group 1, FIG. 2A), 250 mg/kg)","SWD number compared to control (WAG/Rij rats [2]; uridine i.p. 1000 mg/kg alone, PTC day, 30-270 min (group 2, FIG. 2B))","SWD number compared to control (WAG/Rij rats [2]; uridine i.p. 1000 mg/kg alone, treatment day, 90-270 min (group 2, FIG. 2B), 1000 mg/kg)"
"CCCn1c(=O)c2[nH]c(C3CCCC3)nc2n(CCC)c1=O [DPCPX, 1,3-dipropyl-8-cyclopentylxanthine]",did not change sleep-waking ratios and averaged time of SWDs,did not evoke proepileptic effect; also recorded: did not generate changes in SWD number,did not change SWD number on PTC days,,,,,
"Nc1nc2c(cnn2CCc2ccccc2)c2nc(-c3ccco3)nn12 [SCH 58261, 7-(2-phenylethyl)-5-amino-2-(2-furyl)-pyrazolo-[4,3-e]-1,2,4-triazolo[1,5-c]pyrimidine]",did not change sleep-waking ratios and averaged time of SWDs,,did not change SWD number on PTC days,did not generate anti-epileptic effect,,,,
O=c1ccn([C@@H]2O[C@H](CO)[C@@H](O)[C@H]2O)c(=O)[nH]1 [uridine],did not change sleep-waking ratios and averaged time of SWDs,,,,significant change in SWD number was not observed,only a trend of non-significant decrease in SWD number,significantly decreased SWD number,significantly decreased the SWD number
